Reference: patent US12018021B2 (UCB Biopharma SRL, priority 2018, dated 2024)

target: IgE-Tb / FcεRIα-Y131A-AF488 (Homo sapiens, UniProt P01854); assay: IgE-Tb / FcεRIα-Y131A-AF488 FRET assay (protocol for examples 1 to 233); assay type: binding; details: examples 1 to 233: 5 nM IgE-Tb, 25 nM FcεRIα-Y131A-AF488, incubated 2 hours at room temperature; read-out: Y131A FRET IC50 range
Summary of the method: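 Compounds (top final concentration usually 10 μM, 3-fold, 10 points, 2% DMSO) incubated 2 h at room temperature with IgE-Tb (5 nM) and FcεRIα-Y131A-AF488 (25 nM). Background from 200 nM unlabelled receptor subtracted; FRET ratio 520/495 nm after 330 nm excitation gave percent inhibition, fitted four-parameter for IC50.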

Sequence of IgE-Tb / FcεRIα-Y131A-AF488 (P01854 1-427 limits assumed, stated change not applied): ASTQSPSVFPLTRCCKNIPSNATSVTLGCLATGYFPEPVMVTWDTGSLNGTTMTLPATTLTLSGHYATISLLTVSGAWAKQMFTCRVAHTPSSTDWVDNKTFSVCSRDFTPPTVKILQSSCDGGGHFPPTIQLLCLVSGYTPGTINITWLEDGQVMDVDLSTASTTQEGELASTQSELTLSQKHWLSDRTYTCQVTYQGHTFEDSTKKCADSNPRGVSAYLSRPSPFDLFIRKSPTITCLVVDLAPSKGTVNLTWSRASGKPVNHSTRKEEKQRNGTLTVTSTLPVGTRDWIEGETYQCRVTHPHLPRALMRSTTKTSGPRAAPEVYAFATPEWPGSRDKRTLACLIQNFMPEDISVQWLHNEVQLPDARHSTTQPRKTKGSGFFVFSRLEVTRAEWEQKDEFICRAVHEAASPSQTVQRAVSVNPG

Compound	IC50
Cc1ccc(NCC2(O)CCc3sc(NC(=O)C4CC4)c(C(=O)NCC4CC4)c3C2)cc1 (stereo not shown) [Example 60, 2-(Cyclopropanecarbonylamino)-N-(cyclopropylmethyl)-5-hydroxy-5-[(4-methylanilino)methyl]-6,7-dihydro-4H-benzothiophene-3-carboxamide]	1000 to 10000 nM
Cc1ccc(N2CC3(CCc4sc(NC(=O)C5CC5)c(C(=O)NCC5CC5)c4C3)OC2=O)cc1 (stereo not shown) [Example 61, 2-(Cyclopropanecarbonylamino)-N-(cyclopropylmethyl)-2′-oxo-3′-(p-tolyl)spiro[6,7-dihydro-4H-benzothiophene-5,5′-oxazolidine]-3-carboxamide]	< 1000 nM
Nc1ncccc1C1CCc2sc(NC(=O)C3CC3)c(C(=O)NCC3CC3)c2C1 (stereo not shown) [Example 62, 5-(2-Amino-3-pyridyl)-2-(cyclopropanecarbonylamino)-N-(cyclopropylmethyl)-4,5,6,7-tetrahydrobenzothiophene-3-carboxamide]	< 1000 nM
Cc1ccc(-c2cnc(C3CCc4sc(NC(=O)C5CC5)c(C(=O)NCC5CC5)c4C3)[nH]2)cc1 (stereo not shown) [Example 63, 2-(Cyclopropanecarbonylamino)-N-(cyclopropylmethyl)-5-[5-(p-tolyl)-1H-imidazol-2-yl]-4,5,6,7-tetrahydrobenzothiophene-3-carboxamide]	< 1000 nM
N#CC1CCc2sc(NC(=O)C3CC3)c(C(=O)NCC3CC3)c2C1 (stereo not shown) [Example 64, 5-Cyano-2-(cyclopropanecarbonylamino)-N-(cyclopropylmethyl)-4,5,6,7-tetrahydrobenzothiophene-3-carboxamide]	1000 to 10000 nM
N#CC1CCCc2c1sc(NC(=O)C1CC1)c2C(=O)NCC1CC1 (stereo not shown) [Example 65, 7-Cyano-2-(cyclopropanecarbonylamino)-N-(cyclopropylmethyl)-4,5,6,7-tetrahydrobenzothiophene-3-carboxamide]	1000 to 10000 nM
O=C(NCC1CC1)c1c(NC(=O)C2CC2)sc2c1C[C@H](C(F)(F)F)CC2 [Example 66, (5R)-2-(Cyclopropanecarbonylamino)-N-(cyclopropylmethyl)-5-(trifluoromethyl)-4,5,6,7-tetrahydrobenzothiophene-3-carboxamide]	1000 to 10000 nM
O=C(NCC1CC1)c1c(NC(=O)C2CC2)sc2c1C[C@@H](C(F)(F)F)CC2 [Example 67, (5S)-2-(Cyclopropanecarbonylamino)-N-(cyclopropylmethyl)-5-(trifluoromethyl)-4,5,6,7-tetrahydrobenzothiophene-3-carboxamide]	< 1000 nM
Cc1coc(C2CCc3sc(NC(=O)C4CC4)c(C(=O)NCC4CC4)c3C2)n1 (stereo not shown) [Example 68, 2-(Cyclopropanecarbonylamino)-N-(cyclopropylmethyl)-5-(4-methyloxazol-2-yl)-4,5,6,7-tetrahydrobenzothiophene-3-carboxamide]	1000 to 10000 nM
NCC1(O)CCc2sc(NC(=O)C3CC3)c(C(=O)NCC3CC3)c2C1 (stereo not shown) [Example 69, 5-(Aminomethyl)-2-(cyclopropanecarbonylamino)-N-(cyclopropylmethyl)-5-hydroxy-6,7-dihydro-4H-benzothiophene-3-carboxamide]	10000 to 50000 nM
Cc1ccc(NC(=O)NCC2(O)CCc3sc(NC(=O)C4CC4)c(C(=O)NCC4CC4)c3C2)cc1 (stereo not shown) [Example 70, 2-(Cyclopropanecarbonylamino)-N-(cyclopropylmethyl)-5-hydroxy-5-[(p-tolylcarbamoylamino)methyl]-6,7-dihydro-4H-benzothiophene-3-carboxamide]	1000 to 10000 nM
Cc1noc(C2CCc3sc(NC(=O)C4CC4)c(C(=O)NCC4CC4)c3C2)n1 (stereo not shown) [Example 71, 2-(Cyclopropanecarbonylamino)-N-(cyclopropylmethyl)-5-(3-methyl-1,2,4-oxadiazol-5-yl)-4,5,6,7-tetrahydrobenzothiophene-3-carboxamide]	1000 to 10000 nM
Cc1nnc(C2CCc3sc(NC(=O)C4CC4)c(C(=O)NCC4CC4)c3C2)o1 (stereo not shown) [Example 72, 2-(Cyclopropanecarbonylamino)-N-(cyclopropylmethyl)-5-(5-methyl-1,3,4-oxadiazol-2-yl)-4,5,6,7-tetrahydrobenzothiophene-3-carboxamide]	1000 to 10000 nM
